This note sets out measurements from patent US20220218679A1, “NOVEL COMPOUNDS AND PHARMACEUTICAL COMPOSITIONS THEREOF FOR THE TREATMENT OF INFLAMMATORY DISORDERS” (Galapagos NV, priority 2019, published 2022).

This assay relates to MC903 induced atopic dermatitis in mice. Nature of the assay: Murine prophylactic model of atopic dermatitis induced by topical application of MC903. Particulars: 10 mg/kg b.i.d., versus disease vehicle group. Format: in vivo, BALB/cN mice or CD1/Swiss mice. The text has this: 5.5. Murine Prophylactic Model of Atopic Dermatitis Induced by Topical Application of MC903
Methylcellulose 0.5% was obtained from VWR (cat no. AX021233). MC903 (calcipotriol) was obtained from Tocris Bioscience (cat no. 2700/50). ProSense® 680 was obtained from PerkinElmer (cat no. NEV10003). RNAlater® was obtained from Ambion (cat no. AM7021). Imalgene® 1000 (Merial) and Rompun® 2% (Bayer) were obtained from Centravet (cat no. IMA004-6827812 and ROM001-6835444).
BALB/cN mice (female, 18-20 g body weight) or CD1/Swiss mice (female, 24-26 g body weight) were obtained from Janvier Labs (France). Mice were kept on a 12 h light/dark cycle (07:00-19:00). Temperature was maintained at 22±2° C., food and water were provided ad libitum. […]
The thickness of both ears was measured (after anaesthesia induced by isoflurane inhalation) at initiation of the study, every other day and at sacrifice using a thickness gage (Mitutoyo, Absolute Digimatic, 547-321).
Body weight was assessed at initiation of the study, every other day and at sacrifice.
On D4, mice from all groups receive ProSense® 680 probe (0.8 nmol/10 g, IP). […] Granulocyte infiltration was measured using in vivo molecular imaging (Bruker In-Vivo Xtreme imaging system, excitation wavelength: 630 nm, emission wavelength: 700 nm, acquisition time: 5 seconds). […]
For each readout, mean and sem were calculated. […]

Turning to `COc1cn2nc(CCC(C)(C)O)cc2cc1NC(=O)c1cccn(C2CC2)c1=O` [Compound 1, 1-cyclopropyl-N-[2-(3-hydroxy-3-methylbutyl)-6-methoxypyrazolo[1,5-a]pyridin-5-yl]-2-oxopyridine-3-carboxamide], the “effect on ear thickening at D8” value is listed as “statistically significant effect” and the “effect on granulocyte infiltrate” value was “statistically significant effect”.
